# Reference: US20250276063A1, “PLACENTA-DERVIED NK CELLS AS A SENOL YTIC FOR THERAPEUTIC AND OTHER USES” (Celularity Inc., priority 2021, published 2025)
# Assays:
# [1] = test system: CD34+ cells; assay: NK cell expansion from CD34+ cells cultured with compound, Day 35; format: cell-based, human; settings: for supported NK expansion: compound 10 μM during the first 14 days of the culture; for expansion compared to SR1 at Day 35: compound 10 μM, SR1 10 μM positive control
# Description: UCB CD34+ cells were cultivated in presence of cytokines including thrombopoietin, SCF, Flt3 ligand, IL-7, IL-15 and IL-2 for 35 days to produce three-stage NK cells, as described in Example 1. Multi-color flow cytometry was used to determine the phenotypic characteristics of three-stage NK cells.
# (§1) For biological testing, the compounds were provided to culture to evaluate their effects on NK cell expansion and differentiation. Specifically, donors of CD34+ cells (StemCell Technology) were thawed and expanded in vitro following NK culture protocol. During the first 14 days of the culture, each CRL compounds was dissolved in DMSO and added to the culture at 10 μM concentration. SR1 (at 10 μM) served as a positive control compound, while DMSO alone without any compound served as a negative control. At the end of the culture on Day 35, cell expansion, natural killer (NK) cell differentiation and cytotoxicity of the cells against K562 tumor cell line were characterized. Due to the large number of the compounds, the testing was performed in two experiments, CRL1-11 and CRL 12-22. The same donors were used for each experiment. Positive and negative controls were also included in both experiments.
# [2] = test system: K562 tumor cells; assay: Cytotoxicity assay of compound cultured cells against K562 tumor cells; format: cell-based; settings: 10:1 effector to target ratio; both donors
# Description: as §1
# Cytotoxicity assay was run using compound cultured cells against K562 tumor cells at 10:1 effector to target ratio (FIG. 5) to evaluate cell functions.
smiles,measurement,setting,value
"CCC(C)Nc1cc(-c2cncc(C#N)c2)nc(NCCc2c[nH]c3ccccc23)n1 (centres unmarked) [CRL7, 5-(2-((2-(1H-indol-3-yl)ethyl)amino)-6-(sec-butylamino)pyrimidin-4-yl)nicotinonitrile]",supported NK expansion,[1],all the compounds except CRL7 and CRL13 supported PNK-007 expansion and differentiation
"CCC(C)Nc1nc(NCCc2c[nH]c3ccccc23)c2ccccc2n1 (centres unmarked) [CRL13, N^4-(2-(H-indol-3-yl)ethyl)-N^2-(sec-butyl)quinazoline-2,4-diamine]",supported NK expansion,[1],all the compounds except CRL7 and CRL13 supported PNK-007 expansion and differentiation
"CC(C)c1csc2c(NCCc3c[nH]c4ccccc34)nc(-c3cncc(C#N)c3)nc12 [CRL17, 5-(4-((2-(1H-indol-3-yl)ethyl)amino)-7-isopropylthieno[3,2-d]pyrimidin-2-yl)nicotinonitrile]",expansion compared to SR1 at Day 35,[1],slightly less expansion compared to SR1
same,killing activities compared to cells cultured with SR1,[2],increased killing activities of the cells
"CC(C)c1csc2c(NCCc3c[nH]c4ccccc34)nc(-c3cncc(F)c3)nc12 [CRL18, N-(2-(1H-indol-3-yl)ethyl)-2-(5-fluoropyridin-3-yl)-7-isopropylthieno[3,2-d]pyrimidin-4-amine]",expansion compared to SR1 at Day 35,[1],slightly less expansion compared to SR1
same,killing activities compared to cells cultured with SR1,[2],increased killing activities of the cells
"Fc1cncc(-c2nc(NCCc3c[nH]c4ccccc34)c3occc3n2)c1 [CRL19, N-(2-(1H-indol-3-yl)ethyl)-2-(5-fluoropyridin-3-yl)furo[3,2-d]pyrimidin-4-amine]",supported NK expansion,[1],supported cell expansion the best
"Cc1cncc(-c2nc(NCCc3c[nH]c4ccccc34)c3occc3n2)c1 [CRL20, N-(2-(1H-indol-3-yl)ethyl)-2-(5-methylpyridin-3-yl)furo[3,2-d]pyrimidin-4-amine]",supported NK expansion,[1],supported cell expansion the best
"Cc1cncc(-c2nc(NCCc3c[nH]c4ccccc34)c3scc(C(C)C)c3n2)c1 [CRL21, N-(2-(1H-indol-3-yl)ethyl)-7-isopropyl-2-(5-methylpyridin-3-yl)thieno[3,2-d]pyrimidin-4-amine]",expansion compared to SR1 at Day 35,[1],slightly less expansion compared to SR1
same,killing activities compared to cells cultured with SR1,[2],increased killing activities of the cells
"N#Cc1cncc(-c2nc(NCCc3c[nH]c4ccccc34)c3occc3n2)c1 [CRL22, 5-(4-((2-(1H-indol-3-yl)ethyl)amino)furo[3,2-d]pyrimidin-2-yl)nicotinonitrile]",supported NK expansion,[1],supported cell expansion the best
